Assay [1] addresses TRPC6. The assay is described as follows: Agonist activity at TRPC6 expressed in HEK293 cells coexpressing M5 receptor assessed as induction of TRPC6-mediated calcium influx by fluorescence method.
Assay [2] relates to AGS. The assay is described as follows: Antiproliferative activity against human AGS cells by MTT assay. Format: functional, cell-based. On the technique in general: Tetrazolium dyes change colour on reduction, which living cells bring about.
The next assay relates to MKN-45. The assay is described as follows: Antiproliferative activity against human MKN45 cells by MTT assay. It is filed as functional, cell-based.
Assay [3] has as its system AGS. The assay is described as follows: Antitumor activity against human AGS cells xenografted in BALB/c mouse assessed as reduction in tumor growth at 100 mg/kg, ip BID administered for 2 consecutive weeks and measured every 3 days during compound dosing relative to control. It is filed as functional. To be noted: 72 h, read-out: TGI. (In xenograft studies the graft and the host belong to different species.)

The subject of assay [4] is AGS. Put plainly: Antitumor activity against human AGS cells xenografted in BALB/c mouse assessed as reduction in tumor growth at 200 mg/kg, ip BID administered for 2 consecutive weeks and measured every 3 days during compound dosing relative to control. Format: functional. To be noted: 72 h, read-out: TGI.
The target in assay [5] is TRPC6. The assay is described as follows: Inhibition of TRPC6 expressed in HEK293 cells coexpressing M5 receptor assessed as reduction in TRPC6-mediated calcium influx by fluorescence method.
In assay [6] the target is T1, Short transient receptor potential channel 5 (Homo sapiens, UniProt Q9UL62).
T1 sequence (Q9UL62 whole entry): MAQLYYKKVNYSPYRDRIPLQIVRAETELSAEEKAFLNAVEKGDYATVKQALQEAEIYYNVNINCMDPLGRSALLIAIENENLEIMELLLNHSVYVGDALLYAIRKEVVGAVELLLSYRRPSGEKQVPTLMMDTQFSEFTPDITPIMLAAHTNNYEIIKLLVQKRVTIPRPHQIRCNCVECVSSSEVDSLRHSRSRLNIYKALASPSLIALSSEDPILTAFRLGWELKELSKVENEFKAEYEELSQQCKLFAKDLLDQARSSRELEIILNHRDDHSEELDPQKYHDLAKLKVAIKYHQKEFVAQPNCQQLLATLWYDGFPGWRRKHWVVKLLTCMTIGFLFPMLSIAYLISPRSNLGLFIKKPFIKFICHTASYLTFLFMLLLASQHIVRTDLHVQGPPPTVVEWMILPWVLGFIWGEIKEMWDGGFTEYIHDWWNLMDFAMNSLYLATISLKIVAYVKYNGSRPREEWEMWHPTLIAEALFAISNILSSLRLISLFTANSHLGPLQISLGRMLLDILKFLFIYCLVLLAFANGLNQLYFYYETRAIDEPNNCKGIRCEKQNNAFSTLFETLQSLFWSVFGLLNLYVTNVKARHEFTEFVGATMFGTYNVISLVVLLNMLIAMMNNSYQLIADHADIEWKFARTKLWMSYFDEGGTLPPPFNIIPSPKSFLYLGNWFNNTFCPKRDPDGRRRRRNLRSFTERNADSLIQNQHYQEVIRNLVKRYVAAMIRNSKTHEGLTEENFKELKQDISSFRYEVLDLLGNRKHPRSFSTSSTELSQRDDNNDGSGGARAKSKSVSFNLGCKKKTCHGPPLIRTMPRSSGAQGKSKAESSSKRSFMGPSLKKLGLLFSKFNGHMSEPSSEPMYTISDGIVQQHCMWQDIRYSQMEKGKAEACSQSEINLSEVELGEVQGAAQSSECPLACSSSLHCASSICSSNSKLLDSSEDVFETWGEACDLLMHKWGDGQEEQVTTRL
Put plainly: Inhibition of TRPC5 (unknown origin).

Assay [7] concerns the target T2, Short transient receptor potential channel 3 (Homo sapiens, UniProt Q13507).
T2 sequence (Q13507 whole entry): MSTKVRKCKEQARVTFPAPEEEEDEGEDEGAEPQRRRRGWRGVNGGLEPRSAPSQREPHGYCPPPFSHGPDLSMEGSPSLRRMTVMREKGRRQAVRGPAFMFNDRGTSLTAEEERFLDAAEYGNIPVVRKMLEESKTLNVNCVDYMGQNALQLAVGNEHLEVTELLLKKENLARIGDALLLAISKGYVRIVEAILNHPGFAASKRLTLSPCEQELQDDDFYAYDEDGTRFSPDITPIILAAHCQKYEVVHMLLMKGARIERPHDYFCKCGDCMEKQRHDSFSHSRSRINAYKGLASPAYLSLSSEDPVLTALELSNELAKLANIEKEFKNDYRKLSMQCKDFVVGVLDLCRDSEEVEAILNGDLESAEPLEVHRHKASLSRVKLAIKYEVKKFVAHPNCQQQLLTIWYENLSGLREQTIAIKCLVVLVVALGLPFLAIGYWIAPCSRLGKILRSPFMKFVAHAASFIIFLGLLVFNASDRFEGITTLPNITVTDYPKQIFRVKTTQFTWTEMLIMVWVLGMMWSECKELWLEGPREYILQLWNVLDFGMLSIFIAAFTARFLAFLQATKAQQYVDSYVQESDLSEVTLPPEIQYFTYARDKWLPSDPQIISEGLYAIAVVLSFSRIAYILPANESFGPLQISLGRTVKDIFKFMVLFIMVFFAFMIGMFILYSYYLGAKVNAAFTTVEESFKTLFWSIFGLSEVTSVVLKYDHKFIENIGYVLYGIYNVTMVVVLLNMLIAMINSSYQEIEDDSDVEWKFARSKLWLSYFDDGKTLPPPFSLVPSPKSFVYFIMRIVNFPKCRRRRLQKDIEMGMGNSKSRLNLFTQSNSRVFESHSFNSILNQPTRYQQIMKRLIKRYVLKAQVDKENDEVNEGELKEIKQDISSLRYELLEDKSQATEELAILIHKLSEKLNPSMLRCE
Put plainly: Inhibition of YFP-tagged TRPC3 (unknown origin) expressed in HEK293 cells assessed as reduction carbhocol-induced receptor operated Calcium influx after 5 mins by fura-2-AM dye based assay. Format: cell-based.

For a further assay, the target named is ORAI1/STIM1 (Rattus norvegicus, UniProt P84903+Q5M848). The assay is described as follows: Inhibition of ORAI/STIM1 in thapsigargin treated rat RBL2H3 cells assessed as reduction in store-operated calcium entry after 5 mins by fura-2-AM dye based assay. It is filed as cell-based.
Sequence of ORAI1/STIM1 (P84903 whole entry): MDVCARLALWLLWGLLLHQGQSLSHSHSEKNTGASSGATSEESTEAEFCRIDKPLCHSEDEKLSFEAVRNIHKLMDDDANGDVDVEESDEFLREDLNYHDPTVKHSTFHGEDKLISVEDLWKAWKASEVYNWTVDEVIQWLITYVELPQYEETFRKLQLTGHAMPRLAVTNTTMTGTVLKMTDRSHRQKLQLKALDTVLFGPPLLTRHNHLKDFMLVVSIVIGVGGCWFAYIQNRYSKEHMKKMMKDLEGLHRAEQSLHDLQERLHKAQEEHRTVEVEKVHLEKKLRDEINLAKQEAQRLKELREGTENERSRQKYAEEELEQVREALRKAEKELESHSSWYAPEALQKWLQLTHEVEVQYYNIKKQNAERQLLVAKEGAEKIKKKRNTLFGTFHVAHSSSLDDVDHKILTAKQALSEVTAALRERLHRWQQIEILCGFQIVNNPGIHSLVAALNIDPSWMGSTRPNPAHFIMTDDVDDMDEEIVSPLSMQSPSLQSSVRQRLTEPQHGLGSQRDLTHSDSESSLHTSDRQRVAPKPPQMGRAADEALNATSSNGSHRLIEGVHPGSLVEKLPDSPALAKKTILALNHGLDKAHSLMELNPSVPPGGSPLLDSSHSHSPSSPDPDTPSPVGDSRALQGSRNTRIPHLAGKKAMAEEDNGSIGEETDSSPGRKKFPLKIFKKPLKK
Sequence of ORAI1/STIM1 (Q5M848 whole entry): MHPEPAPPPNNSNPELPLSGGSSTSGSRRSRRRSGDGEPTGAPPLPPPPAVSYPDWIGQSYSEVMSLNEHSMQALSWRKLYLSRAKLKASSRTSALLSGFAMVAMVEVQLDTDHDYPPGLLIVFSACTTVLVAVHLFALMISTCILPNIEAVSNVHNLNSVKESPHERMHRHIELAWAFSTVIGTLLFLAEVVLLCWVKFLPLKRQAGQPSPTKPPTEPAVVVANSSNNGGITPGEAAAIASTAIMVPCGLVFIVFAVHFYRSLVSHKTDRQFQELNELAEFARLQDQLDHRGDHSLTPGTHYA
Assay [8] has as its target T2, Short transient receptor potential channel 3. Put plainly: Inhibition of TRPC3 (unknown origin).
A short description of assay [9]: Inhibition of ORAI (unknown origin) assessed as reduction in Ang2-induced NFAT translocation. Also on record: species or system Homo sapiens.
The target in assay [10] is T3, Short transient receptor potential channel 6 (Homo sapiens, UniProt Q9Y210).
T3 sequence (Q9Y210 whole entry): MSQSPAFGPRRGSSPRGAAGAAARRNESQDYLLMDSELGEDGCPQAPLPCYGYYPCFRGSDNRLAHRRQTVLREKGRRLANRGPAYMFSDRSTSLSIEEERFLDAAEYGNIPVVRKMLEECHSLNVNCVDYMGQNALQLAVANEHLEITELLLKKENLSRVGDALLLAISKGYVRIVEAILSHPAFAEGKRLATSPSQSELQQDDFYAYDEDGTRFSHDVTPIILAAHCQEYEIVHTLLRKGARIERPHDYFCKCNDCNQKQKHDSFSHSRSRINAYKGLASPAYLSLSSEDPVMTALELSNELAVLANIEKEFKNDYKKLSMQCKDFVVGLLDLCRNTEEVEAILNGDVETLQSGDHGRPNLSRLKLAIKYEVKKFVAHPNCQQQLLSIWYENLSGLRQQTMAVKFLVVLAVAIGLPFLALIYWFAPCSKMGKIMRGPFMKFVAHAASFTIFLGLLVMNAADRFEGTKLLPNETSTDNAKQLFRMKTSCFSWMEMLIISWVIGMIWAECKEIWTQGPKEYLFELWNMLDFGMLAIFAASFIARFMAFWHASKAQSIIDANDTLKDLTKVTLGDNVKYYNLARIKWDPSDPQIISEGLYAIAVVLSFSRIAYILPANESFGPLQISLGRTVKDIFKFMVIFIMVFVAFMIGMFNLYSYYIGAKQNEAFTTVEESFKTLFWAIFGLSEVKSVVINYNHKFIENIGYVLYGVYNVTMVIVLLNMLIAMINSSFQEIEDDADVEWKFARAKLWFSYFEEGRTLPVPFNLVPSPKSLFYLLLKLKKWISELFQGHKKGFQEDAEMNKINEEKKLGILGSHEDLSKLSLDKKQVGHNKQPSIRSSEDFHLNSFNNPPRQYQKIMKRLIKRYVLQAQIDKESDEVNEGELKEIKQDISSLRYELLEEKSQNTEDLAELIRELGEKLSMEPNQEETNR
Put plainly: Inhibition of human TRPC6 expressed in thapsigargin pretreated HEK293 cells assessed as reduction in GPCR-induced calcium entry by fluo-4/AM dye based assay. Format: cell-based.

By EC50 is commonly meant the concentration needed to bring the measured effect to its halfway point. Broadly, the IC50 is the concentration that gives 50% inhibition.

Take `CCOC(=O)N1CCC(c2cc(O)n3nc(C)c(-c4ccc(F)cc4)c3n2)CC1`: the half-maximal effective concentration (EC50) on TRPC6 [1] came out at 4700 nM.

For the compound `CCOC(=O)N1CCC(C)(c2cc(O)n3nc(C)c(-c4ccc(C(F)(F)F)cc4)c3n2)CC1`, the IC50 came out at 17100 nM in the assay with AGS [2], 18500 nM in the assay with MKN-45 and 1000 nM on TRPC6 [5]. For the same compound, the inhibition in vivo at 100 mg/kg with AGS [3] stood at 38.5%. The inhibition in vivo at 200 mg/kg in the assay on AGS [4] was 61.5%.

On to `Cc1nnsc1C(=O)Nc1ccc(-n2nc(C(F)(F)F)cc2C(F)(F)F)cc1`, for which the values for the concentration for half-maximal inhibition (IC50) (in assay [6]; in [7]; at ORAI1/STIM1) were 300 nM, 4210 nM and 590 nM, respectively.

On to `CCOC(=O)c1cnn(-c2ccc(NC(=O)C(Cl)=C(Cl)Cl)cc2)c1C(F)(F)F`, for which the IC50 in [8] stood at 700 nM; in assay [9] it was 50 nM; in [7] it was 540 nM; at ORAI1/STIM1, 540 nM.

`C=C[C@](C)(O)CC[C@H]1C(=C)C[C@H](O)[C@H]2C(C)(C)CCC[C@]12C`: in assay [10], the IC50 was 1570 nM.

Source of the values: ChEMBL document CHEMBL4376804, “Review of Transient Receptor Potential Canonical (TRPC5) Channel Modulators and Diseases” (J Med Chem, 2019).
